We go through one compound from patent publication US10206900B2, “Treatments for fibrotic diseases” (MOR RESEARCH APPLICATIONS LTD., priority 2013, dated 2019).

The structures appear in SMILES notation.

Test [1] deals with Smad2/3. The experiment in a line: Smad2/3 phosphorylation by immuno-blot in RPE cells. The class given is cell-based. The method, then: (§1) FIG. 4A-4C: Inhibition of TAK1 abolishes the activation of TGF-β cascades. FIG. 4A: Serum-starved RPE cells were pretreated with or without with 5Z-7-oxozeaenol (1 μM) for 1 hour and then with TGF-β (2.5 ng/ml) for the indicated times. Total protein extracts were analyzed by western blot using the indicated antibodies. […] FIG. 4B: Levels of phospho-Smad2/3 were quantified and normalized to total Smad2/3 FIG. 4C: Statistical analysis of p-p38 and p-Smad3 activation normalized to p38 and Smad3 respectively, with or without TGF-β stimulation. The histograms present results of 5 independent experiments. Statistics were computed using student t-test (Two tailed distribution equal variance). Data is expressed as the Mean±SD. RPE cells were treated with or without 5Z-7-oxozeaenol followed by TGF-β1 treatment and Smad2/3 phosphorylation patterns were examined by immuno-blots. […] Upon TGF-β1 stimulation, the phosphorylation of p38 increased, reaching a peak at 60 min (FIGS. 4A and C).

The subject of test [2] is Smad2/3. The experiment in a line: Smad2/3 phosphorylation by immuno-blot in W2b liver hepatocytes. The following applies: 1 μM for 1 hour, TGF-β 2.5 ng/ml. Type of test: cell-based. The method, then:
FIG. 10: Inhibition of TAK1 abolishes the activation of TGF-β cascades in liver cells. TGF-β1 up-regulates-Smad 2/3 and p38 activation and E-cadherin expression via TAK1 activity in hepatic cells. W2B liver hepatocytes cells were treated with or without 5Z-7-oxozeaenol followed by TGF-β treatment and Smad2/3 and p38 phosphorylation patterns were examined by immuno-blots. W2b liver hepatocytes cells were treated with or without 5Z-7-oxozeaenol (1 μM) for 1 hour followed by TGF-β treatment (2.5 ng/ml) for the indicated times. Smad2/3 and p38 phosphorylation patterns were examined by immuno-blots as described above.

In test [3] the test system is p38. The experiment in a line: p38 phosphorylation by immuno-blot in RPE cells. The class given is cell-based. The following applies: 1 μM for 1 hour then TGF-β 2.5 ng/ml. The method, then:
as §1

Test [4] has as its system E-cadherin. The experiment in a line: E-cadherin immunostaining in RPE cells. The following applies: 1 μM prior to TGF-β1 stimulation. The class given is cell-based. Here is the method: FIG. 3A: RPE cells were plated on fibronectin-coated glass coverslips, serum-starved for 16 hours, pretreated with 5Z-7-oxozeaenol (1 μM) or SB431542 (10 μM), or DMSO for 1 hour, then treated with or without TGF-β1 for 2 days. Following treatment, the cells were stained with rhodamine-phalloidin (actin fibers-red) and DAPI (blue) and visualized by confocal microscopy. Scale bars: […]. FIG. 3B: Serum-starved RPE cells pretreated with 5Z-7-oxozeaenol (1 μM) or DMSO for 1 hour, and were exposed to TGF-β as in FIG. 3A. Total RNA was extracted at each time point and qPCR was performed. Transcription levels of CTGF were determined after 6 h, 16 h and 24 h. Bars represent the specific mRNA amount relative to GAPDH mRNA in the same samples. All experiments were performed in triplicates. A representative histogram from two independent experiments is shown. FIG. 3C: RPE cells were plated and treated as in FIG. 3A. Following treatment, the cells were immunostained with E-cadherin antibodies (green) and DAPI (blue). Representative photographs of two independent experiments are shown. A recent publication has shown that down-regulation of the cell-cell adhesion protein E-cadherin, was considered a hallmark of EMT in RPE cells ([…] et al., Invest Ophthalmol Vis Sci 2010, 51:2755-2763). […]

Test [5] concerns p38. The experiment in a line: p38 phosphorylation by immuno-blot in HT29 colon cells. The class given is cell-based. The following applies: HT29 Human colon cells, TGF-β treatment, versus untreated cells. Here is the method:
FIG. 11. Inhibition of TAK1 abolishes the activation of TGF-β cascades in colon cells. TGF-β1 up-regulates-Smad 2/3 and p38 activation via TAK1 activity in colon cells. HT29 Human colon cells were treated with or without 5Z-7-oxozeaenol followed by TGF-β treatment. Smad2/3 and p38 phosphorylation patterns were examined by immuno-blots. HT29 Human colon cells were treated as in the previous examples with or without 5Z-7-oxozeaenol, followed by TGF-β treatment. Inhibition of TAK1 was assayed by observation of Smad2/3 and p38 phosphorylation patterns by immuno-blots.

Test [6] has as its system RPE cells. The experiment in a line: Collagen lattice contraction upon TNFα stimulation. The class given is cell-based. The following applies: 1 μM before 50 ng/ml TNFα, 72 hours. Here is the method:
FIG. 9: TAK1 regulates RPE cells contraction upon TNFα stimulation. […] RPE cells were seeded in collagen lattices in serum starvation medium. The cells were pretreated with 1 μM 5Z-7 or 1 hour before adding 50 ng/ml TNFα. Lattice were photo-documented after 72 hours and measured using ImajeJ software. The transition of RPE cells to myofibroblasts is characterized, among other aspects, by increased contractile activity (Umazume et al., Invest Ophthalmol Vis Sci 2013, 54:1150-1159; Sakamoto et al., Curr Eye Res 1994, 13:451-459; West-Mays et al., Int J Biochem Cell Biol 2006, 38:1625-1631; Ma et al., Clinical & experimental ophthalmology 2012, 40:e76-86). To examine whether TAK1 is a general regulator of the EMT process affecting cell contractility, floating collagen matrix contraction assay was performed. The test was carried out in full serum with or without TAK1 inhibitor (FIGS. 5A and 5B). While in the control cells significant contraction was observed after 24 hours, reaching 50% of the initial size, TAK1 inhibition impaired the capacity of the cells to contract. The collagen lattice remained nearly 80% from the initial size (FIGS. 5A and B).

Test [7] has as its system c57Black mice. The experiment in a line: Dispase-induced PVR in mice (H&E histology). The following applies: treated 96 hour post-dispase, H&E 96 hours later. The class given is in vivo. The method, then:
96 hour post-treatment, the mice were further treated with 5Z-7-oxozeaenol left untreated, and 96 hours later, mice were sacrificed, eyes were enucleated and stained with hematoxylin and eosin (H&E). […] As shown in the middle panel, dispase caused PVR, manifested by loss of normal cellular architecture of the retina, presence of numerous inflammatory cells and presence of RPE cells throughout all retinal layers compared to the control (left panel). As shown in the right panel, treatment with 5Z-7-oxozeaenol maintained the normal retinal structure and prevented the development of the fibrotic response. 7-8 week old c57Black mice were treated or left untreated with dispase to generate PVR in the mice. 96 hour post-treatment, the mice were treated with 5Z-7-oxozeaenol or left untreated, and 96 hour later, mice were sacrificed, eye were […] and stained with hematoxylin and eosin (H&E).

For the compound `COc1cc(O)c2c(c1)/C=C/C[C@H](O)[C@H](O)C(=O)/C=C\C[C@H](C)OC2=O` [5Z-7-oxozeaenol], the “Smad2/3 activation (phospho-Smad2/3)” value in test [1] (1 μM for 1 hour then TGF-β 2.5 ng/ml) is reported as “barely detectable”. In addition, the “ratio of phospho-Smad2/3 to total Smad2/3” value in test [1] (1 μM, TGF-β1-stimulated, each time point) is listed as “abolished Smad2/3 activation”. In addition, in test [2], the Smad2/3 activation entry is “barely detectable”. For the same compound, the “p38 activation (phosphorylation) upon TGF-β1 stimulation” value in test [3] is listed as “abolished p38 activation”. Moreover, the “E-cadherin expression upon TGF-β1” value in test [4] is “allowing normal E-cadherin expression”. Further, in test [5], the p38 phosphorylation entry is “significantly inhibited”. Besides, the “collagen contraction after EMT stimulation by TNFα” value in test [6] was “significantly reduced collagen contraction”. For the same compound, the “development of the fibrotic response / retinal structure (PVR)” value in test [7] was “prevents the development of the fibrotic response”.
